The record followed here is patent US9187435B2, “Bridged Spiro[2.4]heptane ester derivatives” (Actelion Pharmaceuticals Ltd., priority 2010, dated 2015).

This experiment deals with T1, human ALX receptor (Homo sapiens, UniProt P25090).
T1 construct: expressed in transfected cells; host or cells: HEK293 (HEK293-hALXR-Gα16)
T1 sequence (P25090 1-351): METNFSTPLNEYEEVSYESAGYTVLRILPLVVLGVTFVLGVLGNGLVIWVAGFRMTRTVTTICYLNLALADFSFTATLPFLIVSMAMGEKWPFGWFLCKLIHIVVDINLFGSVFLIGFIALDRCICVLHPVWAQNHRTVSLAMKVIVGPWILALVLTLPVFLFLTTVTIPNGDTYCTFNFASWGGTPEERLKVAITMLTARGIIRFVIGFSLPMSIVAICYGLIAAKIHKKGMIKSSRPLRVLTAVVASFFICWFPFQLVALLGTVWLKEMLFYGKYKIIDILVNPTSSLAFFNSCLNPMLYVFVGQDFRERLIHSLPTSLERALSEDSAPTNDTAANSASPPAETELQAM
The experiment can be described thus: Intracellular calcium measurements (FLIPR) in HEK293-hALXR-Gα16 cells, agonistic activity. The following applies: values normalized to WKYMVm 10 nM. It is filed as cell-based. An outline of the steps:
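HEK293 cells co-expressing human ALX receptor and Gα16, loaded with 1 μM Fluo-4 AM (60 min, 37 °C), then exposed to serially diluted compound. Peak fluorescence above baseline (ex 488/em 540 nm) was recorded after compound addition. Values were normalized to 10 nM WKYMVm as the high control, after subtracting the buffer-addition baseline.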

For `CC(CC(F)(F)CN1CCCC1)OC(=O)[C@H]1[C@H](C(=O)Nc2ccc(Br)nc2)[C@@H]2CC[C@H]1C21CC1` (stereo partly drawn) [Example 77, (1S,2R,3R,4R)-[(4,4-Difluoro-5-(pyrrolidin-1-yl))pent-2-yl 2-((6-bromopyridin-3-yl)carbamoyl)spiro[bicyclo[2.2.1]heptane-7,1′-cyclopropane]-3-carboxylate]], the EC50 (in general, the concentration at which the effect is half-maximal) was found to be 1750 nM. In the case of `O=C(OCCCC(F)(F)CN1CCCC1)[C@H]1[C@H](C(=O)Nc2ccc(Br)nc2)[C@@H]2CC[C@H]1C21CC1` [Example 78, (1S,2R,3R,4R)-[(4,4-Difluoro-5-(pyrrolidin-1-yl))pent-1-yl 2-((6-bromopyridin-3-yl)carbamoyl)spiro[bicyclo[2.2.1]heptane-7,1′-cyclopropane]-3-carboxylate]] it was 3740 nM.
